The source of these data is ChEMBL document CHEMBL3390834, “Development of second generation epigenetic agents” (Medchemcomm, 2012).

The structures appear in SMILES notation. Some results are limits rather than exact numbers.

Test [1] addresses T1, Lysine-specific demethylase 4E (Homo sapiens, UniProt B2RXH2).
T1 sequence (B2RXH2 whole entry): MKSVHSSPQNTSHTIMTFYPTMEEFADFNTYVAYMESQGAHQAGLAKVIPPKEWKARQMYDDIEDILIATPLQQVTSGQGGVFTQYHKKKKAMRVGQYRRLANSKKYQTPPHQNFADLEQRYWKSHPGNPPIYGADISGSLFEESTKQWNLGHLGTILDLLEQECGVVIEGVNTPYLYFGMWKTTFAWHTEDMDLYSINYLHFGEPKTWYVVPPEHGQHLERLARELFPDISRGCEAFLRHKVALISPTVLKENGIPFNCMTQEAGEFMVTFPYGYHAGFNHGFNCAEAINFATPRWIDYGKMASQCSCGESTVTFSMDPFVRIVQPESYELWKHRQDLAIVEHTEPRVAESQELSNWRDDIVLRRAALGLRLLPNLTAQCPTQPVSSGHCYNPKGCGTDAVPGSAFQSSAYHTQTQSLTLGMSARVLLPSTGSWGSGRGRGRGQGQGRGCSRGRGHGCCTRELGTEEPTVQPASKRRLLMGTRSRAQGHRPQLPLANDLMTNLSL
Description: Inhibition of N-terminal His-6-tagged human JMJD2E (1 to 337 residues) expressed in Escherichia coli by MALDI-TOF/MS analysis

The target of test [2] is Histone acetyltransferase p300 (Homo sapiens, UniProt Q09472). The test is described as follows: Inhibition of recombinant p300 (unknown origin) expressed in baculovirus expression system using [3H]acetyl-CoA as substrate preincubated for 10 mins followed by substrate addition measured after 10 mins by liquid scintillation counting analysis.
The target of test [3] is T2, Lysine-specific histone demethylase 1A (Homo sapiens, UniProt O60341). The test is described as follows: Inhibition of human LSD-1 by fluorescence-based assay.
A further test relates to Saccharomyces cerevisiae. The test can be described thus: Selectivity for yeast Hst1p over yeast Sir2p.
Test [4] has as its target T3, Histone-arginine methyltransferase CARM1 (Homo sapiens, UniProt Q86X55).
T3 sequence (Q86X55 whole entry): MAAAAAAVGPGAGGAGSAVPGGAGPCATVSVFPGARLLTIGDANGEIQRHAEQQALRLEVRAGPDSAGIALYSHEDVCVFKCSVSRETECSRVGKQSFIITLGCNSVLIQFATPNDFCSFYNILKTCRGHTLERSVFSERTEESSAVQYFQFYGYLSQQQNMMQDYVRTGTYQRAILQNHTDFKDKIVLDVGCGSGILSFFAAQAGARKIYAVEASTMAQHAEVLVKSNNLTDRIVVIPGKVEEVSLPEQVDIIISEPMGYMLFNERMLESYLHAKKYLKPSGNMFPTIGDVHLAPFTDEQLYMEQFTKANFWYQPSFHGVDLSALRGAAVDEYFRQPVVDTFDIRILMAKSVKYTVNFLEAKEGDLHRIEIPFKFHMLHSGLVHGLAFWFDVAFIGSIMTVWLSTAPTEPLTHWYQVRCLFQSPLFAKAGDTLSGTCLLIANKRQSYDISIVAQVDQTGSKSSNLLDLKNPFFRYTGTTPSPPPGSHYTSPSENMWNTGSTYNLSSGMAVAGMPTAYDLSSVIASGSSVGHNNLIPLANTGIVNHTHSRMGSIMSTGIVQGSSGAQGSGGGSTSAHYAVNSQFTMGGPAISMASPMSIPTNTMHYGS
The test can be described thus: Inhibition of full-length GST-tagged CARM-1 (unknown origin) expressed in Spodoptera frugiperda cells using histone H3 and tritiated-SAM as substrate.

Test [5] in a line: Inhibition of yeast Sir2p HAD activity using [3H]-acetylated histone H4 as substrate assessed as release of free [3H]-acetate after 16 hrs. Set-up: species or system Saccharomyces cerevisiae.
The target in test [6] is Histone acetyltransferase KAT2A (Homo sapiens, UniProt Q92830). The test can be described thus: Inhibition of human GCN5.
Chain of Histone acetyltransferase KAT2A (Q92830 whole entry): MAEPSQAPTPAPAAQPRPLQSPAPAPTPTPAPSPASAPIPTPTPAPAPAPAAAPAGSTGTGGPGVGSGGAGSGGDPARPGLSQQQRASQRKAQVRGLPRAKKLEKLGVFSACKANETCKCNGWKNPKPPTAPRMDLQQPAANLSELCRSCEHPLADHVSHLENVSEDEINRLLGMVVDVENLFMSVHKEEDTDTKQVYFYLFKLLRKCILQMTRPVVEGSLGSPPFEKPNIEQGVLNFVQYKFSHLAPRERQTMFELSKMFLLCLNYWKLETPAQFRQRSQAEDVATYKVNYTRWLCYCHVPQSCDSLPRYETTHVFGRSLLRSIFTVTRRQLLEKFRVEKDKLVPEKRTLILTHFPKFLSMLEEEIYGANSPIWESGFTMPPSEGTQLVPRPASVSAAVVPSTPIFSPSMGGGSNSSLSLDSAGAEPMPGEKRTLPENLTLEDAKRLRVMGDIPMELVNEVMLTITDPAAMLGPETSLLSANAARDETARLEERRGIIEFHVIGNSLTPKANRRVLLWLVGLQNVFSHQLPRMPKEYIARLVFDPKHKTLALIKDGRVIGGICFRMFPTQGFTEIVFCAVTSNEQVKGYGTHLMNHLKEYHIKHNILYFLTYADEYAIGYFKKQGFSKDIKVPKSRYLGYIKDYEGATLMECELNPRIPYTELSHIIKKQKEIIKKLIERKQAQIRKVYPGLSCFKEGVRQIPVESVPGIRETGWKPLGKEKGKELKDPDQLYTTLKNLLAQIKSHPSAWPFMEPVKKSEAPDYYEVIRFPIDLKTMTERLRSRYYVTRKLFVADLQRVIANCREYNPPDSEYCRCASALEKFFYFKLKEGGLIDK
The target of the next test is CREB-binding protein (Homo sapiens, UniProt Q92793). The test is described as follows: Inhibition of CBP (unknown origin).
Chain of CREB-binding protein (Q92793 whole entry): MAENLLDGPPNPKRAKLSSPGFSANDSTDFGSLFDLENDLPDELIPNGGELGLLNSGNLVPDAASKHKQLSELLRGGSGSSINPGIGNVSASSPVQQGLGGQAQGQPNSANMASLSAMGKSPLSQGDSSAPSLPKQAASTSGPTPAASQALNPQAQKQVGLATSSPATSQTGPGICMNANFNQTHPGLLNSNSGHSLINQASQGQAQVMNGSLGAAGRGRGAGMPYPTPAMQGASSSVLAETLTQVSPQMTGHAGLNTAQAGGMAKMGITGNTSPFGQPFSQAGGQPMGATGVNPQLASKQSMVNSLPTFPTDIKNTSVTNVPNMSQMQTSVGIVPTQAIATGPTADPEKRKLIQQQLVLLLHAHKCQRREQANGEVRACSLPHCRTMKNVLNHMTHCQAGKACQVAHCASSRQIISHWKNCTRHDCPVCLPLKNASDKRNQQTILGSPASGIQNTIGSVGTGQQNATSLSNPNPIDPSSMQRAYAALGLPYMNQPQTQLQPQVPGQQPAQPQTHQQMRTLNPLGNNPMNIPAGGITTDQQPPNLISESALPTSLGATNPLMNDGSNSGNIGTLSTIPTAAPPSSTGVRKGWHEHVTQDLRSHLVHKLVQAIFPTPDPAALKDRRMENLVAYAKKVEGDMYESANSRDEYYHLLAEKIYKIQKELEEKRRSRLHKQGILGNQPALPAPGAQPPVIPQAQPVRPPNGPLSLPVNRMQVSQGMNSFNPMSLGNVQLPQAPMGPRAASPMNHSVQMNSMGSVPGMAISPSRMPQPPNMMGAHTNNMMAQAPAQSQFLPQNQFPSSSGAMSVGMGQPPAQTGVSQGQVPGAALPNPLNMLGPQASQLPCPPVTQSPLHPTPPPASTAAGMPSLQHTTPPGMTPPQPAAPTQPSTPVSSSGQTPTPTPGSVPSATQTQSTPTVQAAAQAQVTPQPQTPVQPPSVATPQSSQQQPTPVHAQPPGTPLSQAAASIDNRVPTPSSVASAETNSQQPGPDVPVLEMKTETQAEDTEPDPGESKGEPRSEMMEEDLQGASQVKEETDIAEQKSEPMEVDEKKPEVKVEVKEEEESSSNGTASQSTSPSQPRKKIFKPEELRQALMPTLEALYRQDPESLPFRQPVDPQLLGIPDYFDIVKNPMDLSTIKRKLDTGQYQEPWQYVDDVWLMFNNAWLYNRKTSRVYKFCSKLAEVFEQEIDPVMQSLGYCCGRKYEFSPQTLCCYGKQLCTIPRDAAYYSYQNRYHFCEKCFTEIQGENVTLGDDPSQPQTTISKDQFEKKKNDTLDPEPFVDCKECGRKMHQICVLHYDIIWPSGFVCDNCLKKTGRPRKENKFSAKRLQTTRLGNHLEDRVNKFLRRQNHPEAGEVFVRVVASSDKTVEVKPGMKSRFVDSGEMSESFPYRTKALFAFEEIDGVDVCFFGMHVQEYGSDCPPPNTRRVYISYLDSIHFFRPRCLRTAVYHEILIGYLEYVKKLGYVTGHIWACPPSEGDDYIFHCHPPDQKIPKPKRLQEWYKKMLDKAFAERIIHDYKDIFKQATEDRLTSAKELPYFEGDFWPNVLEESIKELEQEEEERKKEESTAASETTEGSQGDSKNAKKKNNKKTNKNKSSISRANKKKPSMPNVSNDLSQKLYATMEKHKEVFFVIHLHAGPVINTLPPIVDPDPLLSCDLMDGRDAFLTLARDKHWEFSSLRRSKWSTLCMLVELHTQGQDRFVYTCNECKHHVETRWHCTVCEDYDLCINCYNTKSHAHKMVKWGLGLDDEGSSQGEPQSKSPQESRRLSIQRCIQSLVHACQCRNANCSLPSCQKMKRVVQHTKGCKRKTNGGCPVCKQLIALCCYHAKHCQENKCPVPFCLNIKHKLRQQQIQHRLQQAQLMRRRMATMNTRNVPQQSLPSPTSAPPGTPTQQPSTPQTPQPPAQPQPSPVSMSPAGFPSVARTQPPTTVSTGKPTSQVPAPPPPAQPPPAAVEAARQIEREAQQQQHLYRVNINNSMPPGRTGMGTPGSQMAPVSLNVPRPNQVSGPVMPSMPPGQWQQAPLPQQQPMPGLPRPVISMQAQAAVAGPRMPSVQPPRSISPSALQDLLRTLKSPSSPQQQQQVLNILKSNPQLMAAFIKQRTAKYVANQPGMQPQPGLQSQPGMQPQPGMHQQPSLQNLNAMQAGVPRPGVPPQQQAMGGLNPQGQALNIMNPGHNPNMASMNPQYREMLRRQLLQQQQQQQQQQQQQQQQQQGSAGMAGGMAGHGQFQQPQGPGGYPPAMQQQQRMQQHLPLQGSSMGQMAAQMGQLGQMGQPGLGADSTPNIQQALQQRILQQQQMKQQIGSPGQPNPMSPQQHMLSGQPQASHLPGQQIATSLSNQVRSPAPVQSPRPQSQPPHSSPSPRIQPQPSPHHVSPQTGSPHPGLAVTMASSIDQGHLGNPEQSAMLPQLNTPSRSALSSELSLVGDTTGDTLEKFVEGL
The species entered for test [7] is Homo sapiens. The test can be described thus: Selectivity ratio of IC50 for human CARM-1 to IC50 for human recombinant PRMT-1.
Test [8] is filed under the species Homo sapiens. The test is described as follows: Selectivity ratio of IC50 for SET7 (unknown origin) to IC50 for human recombinant PRMT-2.
Test [9] deals with Protein arginine N-methyltransferase 1 (Homo sapiens, UniProt Q99873). The test is described as follows: Inhibition of human recombinant PRMT-1 using Npl3p as substrate.
Chain of Protein arginine N-methyltransferase 1 (Q99873 whole entry): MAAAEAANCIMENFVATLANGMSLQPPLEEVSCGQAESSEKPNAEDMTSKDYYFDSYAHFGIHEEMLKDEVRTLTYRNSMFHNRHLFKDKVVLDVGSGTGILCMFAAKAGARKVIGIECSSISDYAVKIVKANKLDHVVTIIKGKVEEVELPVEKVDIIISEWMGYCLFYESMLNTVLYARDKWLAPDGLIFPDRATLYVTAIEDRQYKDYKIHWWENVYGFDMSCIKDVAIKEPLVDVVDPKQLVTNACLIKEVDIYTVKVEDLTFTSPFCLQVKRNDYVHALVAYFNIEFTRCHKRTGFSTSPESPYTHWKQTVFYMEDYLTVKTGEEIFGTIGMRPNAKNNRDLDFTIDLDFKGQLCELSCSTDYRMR
The target of test [10] is T2, Lysine-specific histone demethylase 1A. The test is described as follows: Inhibition of N-terminal His-6-tagged full length human LSD-1 expressed in Escherichia coli BL21 (DE3) using H3K4me2 peptide as substrate at 1 uM by Western blotting analysis relative to control. On the technique in general: In western blotting, separated proteins are transferred to a membrane and probed.

The species entered for test [11] is Homo sapiens. The test can be described thus: Selectivity ratio of IC50 for MAO-B (unknown origin) to IC50 for LSD-1 (unknown origin).
Test [12] addresses T2, Lysine-specific histone demethylase 1A. The test is described as follows: Inhibition of LSD-1 (unknown origin).
Test [13] is described as follows: Inhibition of HAT isolated from human HeLa cell nuclear extracts using biotinylated histone H4 peptide as substrate after 8 mins.
The target in test [14] is T4, NAD-dependent protein deacetylase sirtuin-2 (Homo sapiens, UniProt Q8IXJ6).
T4 sequence (Q8IXJ6 whole entry): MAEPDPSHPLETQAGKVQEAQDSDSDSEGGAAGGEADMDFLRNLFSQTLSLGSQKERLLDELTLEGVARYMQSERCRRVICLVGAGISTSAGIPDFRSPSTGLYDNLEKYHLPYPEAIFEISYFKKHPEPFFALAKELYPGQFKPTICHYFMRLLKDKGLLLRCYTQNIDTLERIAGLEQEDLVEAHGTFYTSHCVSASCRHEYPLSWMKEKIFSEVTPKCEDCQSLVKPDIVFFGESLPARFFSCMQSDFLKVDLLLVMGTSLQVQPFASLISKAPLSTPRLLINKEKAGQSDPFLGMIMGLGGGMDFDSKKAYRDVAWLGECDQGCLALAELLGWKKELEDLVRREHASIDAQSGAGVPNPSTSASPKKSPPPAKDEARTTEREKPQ
Description: Inhibition of recombinant human N-terminal His6-tagged SIRT-2 using ZMAL as substrate after 4 hrs by homogeneous fluorescent deacetylase assay

The target of test [15] is T4, NAD-dependent protein deacetylase sirtuin-2. The test is described as follows: Inhibition of human SIRT-2 using fluor de Lys as substrate after 2 hrs by fluorescence assay.
For the next test, the target named is Histone deacetylase. The test can be described thus: Inhibition of HDAC isolated from human HeLa cell nuclear extracts using Fluor de Lys as substrate after 30 mins by fluorescence assay. The format is protein assay.
A short description of test [16]: Growth inhibition of human KYSE-150 cells after 48 hrs. The format is functional. The conditions noted are these: KYSE-150, 48 h.
In test [17] the target is NAD-dependent protein deacetylase sirtuin-1 (Homo sapiens, UniProt Q96EB6). The test can be described thus: Inhibition of recombinant human GST-tagged SIRT-1 using ZMAL as substrate after 4 hrs by homogeneous fluorescent deacetylase assay.
Chain of NAD-dependent protein deacetylase sirtuin-1 (Q96EB6 whole entry): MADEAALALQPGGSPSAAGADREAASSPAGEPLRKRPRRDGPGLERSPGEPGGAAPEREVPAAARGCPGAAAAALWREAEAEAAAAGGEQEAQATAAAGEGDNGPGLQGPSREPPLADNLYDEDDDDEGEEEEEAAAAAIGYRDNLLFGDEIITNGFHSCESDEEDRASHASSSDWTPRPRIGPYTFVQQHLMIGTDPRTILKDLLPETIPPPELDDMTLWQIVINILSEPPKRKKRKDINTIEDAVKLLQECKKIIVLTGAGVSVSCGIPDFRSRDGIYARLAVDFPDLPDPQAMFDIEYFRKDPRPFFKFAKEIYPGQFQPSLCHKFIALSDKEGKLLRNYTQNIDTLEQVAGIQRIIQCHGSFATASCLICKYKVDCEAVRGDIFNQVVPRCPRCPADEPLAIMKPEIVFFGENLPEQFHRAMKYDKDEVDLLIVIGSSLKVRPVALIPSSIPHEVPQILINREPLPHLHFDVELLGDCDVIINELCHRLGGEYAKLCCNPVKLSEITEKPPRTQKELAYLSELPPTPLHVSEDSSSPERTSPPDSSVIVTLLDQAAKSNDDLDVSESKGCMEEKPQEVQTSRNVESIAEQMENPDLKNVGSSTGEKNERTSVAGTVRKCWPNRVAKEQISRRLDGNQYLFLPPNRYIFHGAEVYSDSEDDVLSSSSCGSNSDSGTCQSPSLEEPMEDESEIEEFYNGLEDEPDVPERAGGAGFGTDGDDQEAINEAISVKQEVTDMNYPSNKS

`NCCc1ccc(O)c(O)c1` [DOPAMINE]: half-maximal inhibition in test [1] (IC50) required 3 µM.

For `COc1cc(C(=O)C2=C3OC(C)(C)[C@@H](CC=C(C)C)C[C@@]34C[C@@H](CC=C(C)C)C(C)(C)[C@@](CC=C(C)C)(C2=O)C4=O)ccc1O`, the concentration for half-maximal inhibition (IC50) (commonly the concentration at which inhibition is half-maximal) in test [2] came to 5 µM.

Turning to `O=C(O)/C=C/C(=O)N(O)CCCCNCc1ccc(COC(=O)Nc2cccc3ccccc23)cc1`, the IC50 in [3] worked out at 620 µM.

`O=c1ccc2c(ccc3ccccc32)o1`: in the test on Saccharomyces cerevisiae, the Selectivity ratio came out at 5.

`CNCCN1CCC(c2ccc3[nH]c(-c4ccccc4OC)c(F)c3c2)CC1` displayed an IC50 in test [4] of 0.03 µM.

On to `O=C1CCc2c(ccc3ccccc23)O1` [SPLITOMICIN], for which the IC50 in [5] was 60 µM.

Consider `C=C1C(=O)O[C@@H](CCC)[C@@H]1C(=O)O`, for which the IC50 is 100 µM in test [6] and 500 µM on CREB-binding protein.

On to `O=C(/C=C/c1ccc(O)c(Br)c1)/C=C/c1cc(Br)c(O)c(Br)c1`, for which the figures for the Ratio IC50 in the test filed under Homo sapiens [7] and in the test listed under Homo sapiens [8] were 30 and 10, respectively. Also, the half-maximal inhibitory concentration (IC50) in test [9] came out at 3 µM.

For the compound `N=C(NCCCNCCCCCCCNCCCNC(=N)NC(=N)NCCC(c1ccccc1)c1ccccc1)NC(=N)NCCC(c1ccccc1)c1ccccc1`, the inhibition (commonly the change of the read-out against control, counted positive when it falls) in test [10] was over 50%.

On to `NC1CC1c1c(F)cc(F)cc1OCc1ccccc1` (configuration not stated), for which, in the test filed under Homo sapiens [11], the Ratio IC50 was over 250. The half-maximal inhibitory concentration (IC50) in [12] is 0.99 µM.

On to `CCCCCCCCCCCCCC(Oc1cccc(OCc2ccccc2)c1)C(=O)O` (configuration not stated), for which inhibition in test [13] was half-maximal at 6 µM (IC50).

For `CCCCCCCCCCC[C@]1(CO)CCCC(=O)O[C@](CO)(CCCCCCCCCCC)CCCC(=O)O1`, the values for the 50% inhibitory concentration (IC50) in test [14] and in [15] were 2 µM and 0.176 µM, respectively.

Compound `C[C@H](N)C(=O)NCc1cccc(-n2nc(C(F)(F)F)cc2-c2nnc(-c3cccc4[nH]ccc34)o2)c1` gave a concentration for half-maximal inhibition (IC50) in test [4] of 0.027 µM.

Regarding `O=C(CSSCC(=O)c1ccc(Br)cc1)c1ccc(Br)cc1`, the IC50 at Histone deacetylase was 0.135 µM.

For the compound `C[C@](N)(Cc1ccc(O)c(O)c1)C(=O)O` [METHYLDOPA], the concentration for half-maximal inhibition (IC50) in [1] was determined as 3 µM.

Consider `COC(=O)/C=C/C(=O)N(O)CCCCNCc1ccc(COC(=O)Nc2cccc3ccccc23)cc1`, for which the GI50 (commonly the concentration that inhibits growth by half) in [16] amounted to 5.1 µM.

In the case of `O=C1NC(=S)NC(=O)C1=Cc1cc2ccccc2[nH]1`, the concentration for half-maximal inhibition (IC50) in test [17] turned out to be 5.9 µM.
